Measurements from paper PMC7725003, “Systematically Studying the Optimal Amino Acid Distribution Patterns of the Amphiphilic Structure by Using the Ultrashort Amphiphiles” (Frontiers in Microbiology, 2020).
Where no end group is shown, it is not given here.

What was measured:
[1] = tested on: E. coli ATCC 25922; assay: Salt sensitivity assay (MIC); type: cell-based, Escherichia coli; conditions: for MIC, FeCl3: 4 μM FeCl3; for MIC, NH4Cl: 6 μM NH4Cl; for MIC, ZnCl2: 8 μM ZnCl2; for MIC, MgCl2: 1 mM MgCl2; for MIC, CaCl2: 2 mM CaCl2; for MIC, KCl: 4.5 mM KCl; for MIC, NaCl: 150 mM NaCl; for MIC, Control: no added salt, three independent assays
Method in brief: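 Peptides diluted serially in 0.2% BSA solution were combined at identical volumes with mid-logarithmic E. coli ATCC 25922 in MHB (0.5–1 × 10^6 CFU mL^–1) in 96-well plates, with or without a physiological salt. Plates were incubated for 24 h at 37°C. MIC was the lowest concentration inhibiting 95% of growth, measured as absorbance at 492 nm on a microplate reader.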

[2] = tested on: MRSA 43300; type: cell-based, methicillin-resistant S. aureus; conditions: 43300, 24 h
Method in brief: (§1)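 Broth microdilution in MHB with mid-log bacteria at 0.5–1 × 10^6 CFU/mL and peptides serially diluted in 0.2% BSA, 24 h at 37 °C. MIC is lowest concentration giving 95% growth inhibition by A492; MBC is lowest concentration killing >99.9% on overnight agar subculture.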

[3] = tested on: Gram-positive bacteria; conditions: for GM MIC: geometric mean of MICs, 7 Gram-positive strains (Table 2); for TI, Gram-positive bacteria: therapeutic index TI = MHC/GM MIC
Method in brief: (§2)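 MIC is the lowest peptide concentration giving 95% growth inhibition, read at 492 nm after 24 h incubation at 37°C. Peptides were serially diluted in 0.2% BSA and added to mid-logarithmic cells at 0.5–1 × 10^6 CFU mL^–1 in MHB, following a modified NCCLS method, with more than 3 repeats.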

[4] = tested on: Gram-negative bacteria; conditions: for GM MIC: geometric mean of MICs, 9 Gram-negative strains (Table 2); for TI, Gram-negative bacteria: therapeutic index TI = MHC/GM MIC
Method in brief: as §2

[5] = tested on: Gram-negative bacteria; conditions: geometric mean of MBCs, 9 Gram-negative strains (Table 2)
[6] = tested on: S. typhimurium 7731; type: cell-based, Salmonella typhimurium; conditions: 7731, 24 h
Method in brief: as §1

[7] = tested on: S. typhimurium 14028; type: cell-based, Salmonella typhimurium; conditions: 14028, 24 h
Method in brief: as §1

[8] = tested on: P. aeruginosa 27853; type: cell-based, Pseudomonas aeruginosa; conditions: 27853, 24 h
Method in brief: as §1

[9] = tested on: all of the tested bacterial strains; assay: Geometric mean of MICs, all tested bacterial strains; type: cell-based; conditions: for GM, All: geometric mean of MICs across all tested strains; for TI, All: therapeutic index TI = MHC/GM MIC
Method in brief: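 Per strain, MIC came from absorbance at 492 nm after 24 h at 37°C (≥95% inhibition), using mid-log inoculum of 0.5–1 × 10^6 CFU mL^–1 in MHB and peptide diluted in 0.2% BSA. MBC (>99.9% killed) came from overnight agar plating, and values are geometric means across strains.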

[10] = tested on: S. pullorum 7913; type: cell-based, Salmonella pullorum; conditions: 7913, 24 h
Method in brief: as §1

[11] = tested on: S. aureus 29213; assay: Salt sensitivity assay (MIC); type: cell-based, Staphylococcus aureus; conditions: for MIC, FeCl3: 4 μM FeCl3; for MIC, NH4Cl: 6 μM NH4Cl; for MIC, ZnCl2: 8 μM ZnCl2; for MIC, MgCl2: 1 mM MgCl2; for MIC, CaCl2: 2 mM CaCl2; for MIC, KCl: 4.5 mM KCl
Method in brief: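 Physiological salts (150 mM NaCl, 4.5 mM KCl, 6 μM NH4Cl, 8 μM ZnCl2, 1 mM MgCl2, 2mM CaCl2, 4 μM FeCl3) added to MHB. Bacteria at 0.5–1 × 10^6 CFU/mL exposed to serially diluted peptides for 24 h at 37°C. MIC read as lowest peptide concentration giving 95% growth inhibition by absorbance at 492 nm.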

[12] = tested on: E. faecalis 29212; type: cell-based, Enterococcus faecalis; conditions: 29212, 24 h
Method in brief: as §1

[13] = tested on: Gram-positive bacteria; conditions: geometric mean of MBCs, 7 Gram-positive strains (Table 2)
[14] = tested on: E. coli O78; type: cell-based, Escherichia coli; conditions: O78, 24 h
Method in brief: as §1

[15] = tested on: E. coli 25922; type: cell-based, Escherichia coli; conditions: 25922, 24 h
Method in brief: as §1

[16] = tested on: E. coli UB1005; type: cell-based, Escherichia coli; conditions: UB1005, 24 h
Method in brief: as §1

[17] = tested on: S. epidermidis 12228; type: cell-based, Staphylococcus epidermidis; conditions: 12228, 24 h
Method in brief: as §1

[18] = tested on: B. subtilis 63501; type: cell-based, Bacillus subtilis; conditions: 63501, 24 h
Method in brief: as §1

[19] = tested on: E. coli K88; conditions: for MIC: MHB, 24 h 37°C, 95% growth inhibition; for MBC: value in brackets, >99.9% of cells killed
Method in brief: (§3)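 Peptides were serially diluted in 0.2% BSA and added to mid-logarithmic cells diluted in MHB to 0.5–1 × 10^6 CFU mL^–1. Assays followed an adapted NCCLS protocol.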

[20] = tested on: E. coli K99; conditions: for MIC: MHB, 24 h 37°C, 95% growth inhibition; for MBC: value in brackets, >99.9% of cells killed
Method in brief: as §3

[21] = tested on: S. aureus 25923; type: cell-based, Staphylococcus aureus; conditions: 25923, 24 h
Method in brief: as §1

[22] = tested on: S. aureus 29213; type: cell-based, Staphylococcus aureus; conditions: 29213, 24 h
Method in brief: as §1

[23] = tested on: Listeria monocytogenes CGMCC 1.1075; type: cell-based; conditions: CGMCC 1.1075, 24 h
Method in brief: as §1

RRLLLLRRL-NH2 [L7]
MIC, FeCl3 [1]: > 64 µM | MIC, NH4Cl [1]: > 64 µM | MIC, ZnCl2 [1]: > 64 µM | MIC, MgCl2 [1]: > 64 µM | MIC, CaCl2 [1]: > 64 µM | MIC, KCl [1]: > 64 µM | MIC, NaCl [1]: > 64 µM | MIC, Control [1]: > 64 µM | MIC [2]: >64 µM | GM MIC [3]: 64.00 µM | TI, Gram-positive bacteria [3]: 4.00 | GM MIC [4]: 94.06 µM | TI, Gram-negative bacteria [4]: 2.72 | GM MBC [5]: 118.51 µM | MIC [6]: > 64 µM | MIC [7]: > 64 µM | MIC [8]: > 64 µM | GM, All [9]: 79.48 µM | TI, All [9]: 3.22 | MIC [10]: >64 µM | MIC, FeCl3 [11]: > 64 µM | MIC, NH4Cl [11]: > 64 µM | MIC, ZnCl2 [11]: > 64 µM | MIC, MgCl2 [11]: > 64 µM | MIC, CaCl2 [11]: > 64 µM | MIC, KCl [11]: > 64 µM | MIC, NaCl ([11]; 150 mM NaCl): > 64 µM | MIC, Control ([11]; no added salt, three independent assays): > 64 µM | MIC [12]: > 64 µM | GM MBC [13]: 78.02 µM | MBC [14]: 128 µM | MIC [14]: 64 µM | MIC [15]: > 64 µM | MIC [16]: >64 µM | MIC [17]: > 64 µM | MBC [18]: 16 µM | MIC [18]: 8 µM | MIC [19]: 32 µM | MBC [19]: 64 µM | MIC [20]: 64 µM | MBC [20]: 128 µM | MIC [21]: > 64 µM | MIC [22]: >64 µM | MBC [23]: 32 µM | MIC [23]: 16 µM

RRLLLRLRL-NH2 [L8]
MIC, FeCl3 [1]: 16 µM | MIC, NH4Cl [1]: 8 µM | MIC, ZnCl2 [1]: 8 µM | MIC, MgCl2 [1]: 32 µM | MIC, CaCl2 [1]: > 64 µM | MIC, KCl [1]: 32 µM | MIC, NaCl [1]: 64 µM | MIC, Control [1]: 16 µM | MBC [2]: 64 µM | MIC [2]: 32 µM | GM MIC [3]: 23.78 µM | TI, Gram-positive bacteria [3]: 10.77 | GM MIC [4]: 17.28 µM | TI, Gram-negative bacteria [4]: 14.81 | GM MBC [5]: 32.00 µM | MBC [6]: 64 µM | MIC [6]: 32 µM | MBC [7]: 64 µM | MIC [7]: 32 µM | MBC [8]: 128 µM | MIC [8]: 64 µM | GM, All [9]: 19.87 µM | TI, All [9]: 12.88 | MBC [10]: 16 µM | MIC [10]: 8 µM | MIC, FeCl3 [11]: 32 µM | MIC, NH4Cl [11]: 32 µM | MIC, ZnCl2 [11]: 32 µM | MIC, MgCl2 [11]: 64 µM | MIC, CaCl2 [11]: > 64 µM | MIC, KCl [11]: 64 µM | MIC [12]: > 64 µM | GM MBC [13]: 43.07 µM | MBC [14]: 16 µM | MIC [14]: 8 µM | MBC [15]: 32 µM | MIC [15]: 16 µM | MBC [16]: 64 µM | MIC [16]: 32 µM | MBC [17]: 64 µM | MIC [17]: 32 µM | MBC [18]: 8 µM | MIC [18]: 4 µM | MIC [19]: 4 µM | MBC [19]: 8 µM | MIC [20]: 16 µM | MBC [20]: 32 µM | MBC [21]: 128 µM | MIC [21]: 64 µM | MBC [22]: 64 µM | MIC [22]: 32 µM | MBC [23]: 8 µM | MIC [23]: 4 µM
